Data: ChEMBL document CHEMBL1201862, “PubChem BioAssay data set” (2004)
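Results reflect a 48-hour exposure of cells in 96-well plates to compound at five concentrations. At the GI50, growth is halved.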 The source made the active and inactive calls. No stated cut-off is given here; in the data, active = GI50 up to about 1.1 µM and inactive = higher.

Columns and labels:
Assay in all cases: NCI anticancer screen, dose series, 48 h
MCF7 = system: MCF7
OVCAR-3 = system: OVCAR-3
786-0 = system: 786-0
SN12C = system: SN12C
SF-539 = system: SF-539
SW-620 = system: SW-620
EKVX = system: EKVX
NCI-H522 = system: NCI-H522
T47D = system: T47D
NCI/ADR-RES = system: NCI/ADR-RES
HCT-116 = system: HCT-116
A549 = system: A549
COLO 205 = system: COLO 205
OVCAR-4 = system: OVCAR-4
ACHN = system: ACHN
RXF 393 = system: RXF 393
CCRF-CEM = system: CCRF-CEM
LOX IMVI = system: LOX IMVI
MOLT-4 = system: MOLT-4
Malme-3M = system: Malme-3M
BT-549 = system: BT-549
TK-10 = system: TK-10
HT-29 = system: HT-29
NCI-H226 = system: NCI-H226
SK-MEL-2 = system: SK-MEL-2
DU-145 = system: DU-145
MDA-MB-231 = system: MDA-MB-231
Hs-578T = system: Hs-578T
SF-295 = system: SF-295
HCT-15 = system: HCT-15
OVCAR-5 = system: OVCAR-5
SK-OV-3 = system: SK-OV-3
RPMI-8226 = system: RPMI-8226
MDA-N = system: MDA-N
HCC 2998 = system: HCC 2998
NCI-H23 = system: NCI-H23
OVCAR-8 = system: OVCAR-8
SNB-75 = system: SNB-75
KM12 = system: KM12
A498 = system: A498
HL-60 = system: HL-60
UACC-62 = system: UACC-62
HOP-92 = system: HOP-92
CAKI-1 = system: CAKI-1
UO-31 = system: UO-31
M14 = system: M14
SNB-19 = system: SNB-19
HOP-62 = system: HOP-62
SF-268 = system: SF-268
K562 = system: K562
SR = system: SR
UACC-257 = system: UACC-257
MDA-MB-435 = system: MDA-MB-435
SK-MEL-5 = system: SK-MEL-5
IGROV-1 = system: IGROV-1
NCI-H460 = system: NCI-H460
SK-MEL-28 = system: SK-MEL-28
U-251 = system: U-251
PC-3 = system: PC-3

Cc1ccc(Nc2nc(=O)[nH]c(=O)[nH]2)cc1N=[N+]=[N-]
GI50 (MCF7): > 100 µM (inactive)
GI50 (OVCAR-3): > 100 µM (inactive)
GI50 (786-0): > 100 µM (inactive)
GI50 (SN12C): > 100 µM (inactive)
GI50 (SF-539): > 100 µM (inactive)
GI50 (SW-620): > 100 µM (inactive)
GI50 (EKVX): > 100 µM (inactive)
GI50 (NCI-H522): > 100 µM (inactive)
GI50 (T47D): > 100 µM (inactive)
GI50 (NCI/ADR-RES): > 100 µM (inactive)
GI50 (HCT-116): > 100 µM (inactive)
GI50 (A549): > 100 µM (inactive)
GI50 (COLO 205): > 100 µM (inactive)
GI50 (OVCAR-4): > 100 µM (inactive)
GI50 (ACHN): > 100 µM (inactive)
GI50 (RXF 393): > 100 µM (inactive)
GI50 (CCRF-CEM): > 100 µM (inactive)
GI50 (LOX IMVI): > 100 µM (inactive)
GI50 (MOLT-4): > 100 µM (inactive)
GI50 (Malme-3M): > 100 µM (inactive)
GI50 (BT-549): > 100 µM (inactive)
GI50 (TK-10): > 100 µM (inactive)
GI50 (HT-29): > 100 µM (inactive)
GI50 (NCI-H226): > 100 µM (inactive)
GI50 (SK-MEL-2): > 100 µM (inactive)
GI50 (DU-145): > 100 µM (inactive)
GI50 (MDA-MB-231): > 100 µM (inactive)
GI50 (Hs-578T): > 100 µM (inactive)
GI50 (SF-295): > 100 µM (inactive)
GI50 (HCT-15): > 100 µM
GI50 (OVCAR-5): > 100 µM (inactive)
GI50 (SK-OV-3): > 100 µM (inactive)
GI50 (RPMI-8226): > 100 µM (inactive)
GI50 (MDA-N): > 100 µM (inactive)
GI50 (HCC 2998): > 100 µM (inactive)
GI50 (NCI-H23): > 100 µM (inactive)
GI50 (OVCAR-8): > 100 µM (inactive)
GI50 (SNB-75): > 100 µM (inactive)
GI50 (KM12): > 100 µM (inactive)
GI50 (A498): > 100 µM (inactive)
GI50 (HL-60): > 100 µM (inactive)
GI50 (UACC-62): > 100 µM (inactive)
GI50 (HOP-92): > 100 µM (inactive)
GI50 (CAKI-1): > 100 µM (inactive)
GI50 (UO-31): > 100 µM (inactive)
GI50 (M14): > 100 µM (inactive)
GI50 (SNB-19): > 100 µM (inactive)
GI50 (HOP-62): > 100 µM (inactive)
GI50 (SF-268): > 100 µM (inactive)
GI50 (K562): > 100 µM (inactive)
GI50 (SR): > 100 µM (inactive)
GI50 (UACC-257): > 100 µM (inactive)
GI50 (MDA-MB-435): > 100 µM (inactive)
GI50 (SK-MEL-5): > 100 µM (inactive)
GI50 (IGROV-1): > 100 µM (inactive)

OC1COC2CC(Nc3ccccn3)OC12 (stereo not given)
GI50 (OVCAR-3): > 100 µM (inactive)
GI50 (786-0): > 100 µM (inactive)
GI50 (SN12C): > 100 µM (inactive)
GI50 (SF-539): > 100 µM (inactive)
GI50 (SW-620): > 100 µM (inactive)
GI50 (EKVX): > 100 µM (inactive)
GI50 (NCI-H522): > 100 µM (inactive)
GI50 (T47D): > 100 µM (inactive)
GI50 (NCI/ADR-RES): 56.9 µM (inactive)
GI50 (HCT-116): > 100 µM (inactive)
GI50 (A549): > 100 µM (inactive)
GI50 (COLO 205): > 100 µM (inactive)
GI50 (OVCAR-4): > 100 µM (inactive)
GI50 (ACHN): > 100 µM (inactive)
GI50 (NCI-H460): > 100 µM (inactive)
GI50 (RXF 393): > 100 µM (inactive)
GI50 (CCRF-CEM): > 100 µM (inactive)
GI50 (LOX IMVI): > 100 µM (inactive)
GI50 (MOLT-4): > 100 µM (inactive)
GI50 (Malme-3M): > 100 µM (inactive)
GI50 (BT-549): > 100 µM (inactive)
GI50 (SK-MEL-28): > 100 µM (inactive)
GI50 (TK-10): > 100 µM (inactive)
GI50 (U-251): > 100 µM (inactive)
GI50 (HT-29): > 100 µM (inactive)
GI50 (NCI-H226): > 100 µM (inactive)
GI50 (SK-MEL-2): > 100 µM (inactive)
GI50 (MDA-MB-231): > 100 µM (inactive)
GI50 (Hs-578T): > 100 µM (inactive)
GI50 (SF-295): > 100 µM (inactive)
GI50 (HCT-15): > 100 µM
GI50 (OVCAR-5): > 100 µM (inactive)
GI50 (SK-OV-3): > 100 µM (inactive)
GI50 (RPMI-8226): > 100 µM (inactive)
GI50 (MDA-N): > 100 µM (inactive)
GI50 (HCC 2998): > 100 µM (inactive)
GI50 (NCI-H23): > 100 µM (inactive)
GI50 (OVCAR-8): > 100 µM (inactive)
GI50 (SNB-75): > 100 µM (inactive)
GI50 (KM12): > 100 µM (inactive)
GI50 (UACC-62): > 100 µM (inactive)
GI50 (CAKI-1): > 100 µM (inactive)
GI50 (UO-31): > 100 µM (inactive)
GI50 (M14): > 100 µM (inactive)
GI50 (SNB-19): > 100 µM (inactive)
GI50 (HOP-62): > 100 µM (inactive)
GI50 (SF-268): > 100 µM (inactive)
GI50 (K562): > 100 µM (inactive)
GI50 (PC-3): > 100 µM (inactive)
GI50 (SR): > 100 µM (inactive)
GI50 (UACC-257): > 100 µM (inactive)
GI50 (MDA-MB-435): > 100 µM (inactive)
GI50 (SK-MEL-5): > 100 µM (inactive)
GI50 (IGROV-1): > 100 µM (inactive)

COc1cc(CNc2nc3cc(C(F)(F)F)ccc3nc2C(=O)O)cc(OC)c1OC
GI50 (MCF7): 20.1 µM (inactive)
GI50 (OVCAR-3): 24.3 µM (inactive)
GI50 (786-0): 19.3 µM (inactive)
GI50 (SN12C): 15.4 µM (inactive)
GI50 (SF-539): 15.2 µM (inactive)
GI50 (SW-620): 31.6 µM (inactive)
GI50 (EKVX): 20.1 µM (inactive)
GI50 (NCI-H522): 29.2 µM (inactive)
GI50 (T47D): 21.1 µM (inactive)
GI50 (NCI/ADR-RES): 24.4 µM (inactive)
GI50 (HCT-116): 15.6 µM (inactive)
GI50 (A549): 21.4 µM (inactive)
GI50 (COLO 205): 22.6 µM (inactive)
GI50 (ACHN): 26.4 µM (inactive)
GI50 (NCI-H460): 25.4 µM (inactive)
GI50 (RXF 393): 23.8 µM (inactive)
GI50 (LOX IMVI): 31.4 µM (inactive)
GI50 (MOLT-4): 20.7 µM (inactive)
GI50 (Malme-3M): 38.6 µM (inactive)
GI50 (BT-549): 29.8 µM (inactive)
GI50 (SK-MEL-28): 22.5 µM (inactive)
GI50 (TK-10): 13.1 µM (inactive)
GI50 (U-251): 15.7 µM (inactive)
GI50 (NCI-H226): 60.7 µM (inactive)
GI50 (SK-MEL-2): 19.9 µM (inactive)
GI50 (DU-145): 33.2 µM (inactive)
GI50 (Hs-578T): 10.4 µM (inactive)
GI50 (SF-295): 20.5 µM (inactive)
GI50 (HCT-15): 29.6 µM
GI50 (OVCAR-5): 49.3 µM (inactive)
GI50 (SK-OV-3): 28.4 µM (inactive)
GI50 (MDA-N): 21.5 µM (inactive)
GI50 (HCC 2998): 41.4 µM (inactive)
GI50 (NCI-H23): 33.8 µM (inactive)
GI50 (OVCAR-8): 34.4 µM (inactive)
GI50 (SNB-75): 19.9 µM (inactive)
GI50 (KM12): 24.7 µM (inactive)
GI50 (A498): 24.2 µM (inactive)
GI50 (HL-60): 0.1 µM (active)
GI50 (UACC-62): 15.5 µM (inactive)
GI50 (CAKI-1): 25.3 µM (inactive)
GI50 (UO-31): 18.6 µM (inactive)
GI50 (M14): 17.5 µM (inactive)
GI50 (SNB-19): 21.6 µM (inactive)
GI50 (HOP-62): 18.5 µM (inactive)
GI50 (SF-268): 27.7 µM (inactive)
GI50 (K562): 28 µM (inactive)
GI50 (PC-3): 21.5 µM (inactive)
GI50 (SR): 33.3 µM (inactive)
GI50 (UACC-257): 21.5 µM (inactive)
GI50 (MDA-MB-435): 23.4 µM (inactive)
